Assay results reported in ChEMBL document CHEMBL1201862, “PubChem BioAssay data set” (2004).
The source made the active and inactive calls.

Key:
[1] = intracellular Trypanosoma cruzi inhibitors in host cells – cell-based, plate reader, cherry-pick samples, set 3, dose response (AID 651818); assay type: functional;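 note: compounds incubated with infected cells for about four days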
[2] = target: Induced myeloid leukemia cell differentiation protein Mcl-1 (Homo sapiens, UniProt Q07820); assay type: functional
Sequence of Induced myeloid leukemia cell differentiation protein Mcl-1 (Q07820 whole entry): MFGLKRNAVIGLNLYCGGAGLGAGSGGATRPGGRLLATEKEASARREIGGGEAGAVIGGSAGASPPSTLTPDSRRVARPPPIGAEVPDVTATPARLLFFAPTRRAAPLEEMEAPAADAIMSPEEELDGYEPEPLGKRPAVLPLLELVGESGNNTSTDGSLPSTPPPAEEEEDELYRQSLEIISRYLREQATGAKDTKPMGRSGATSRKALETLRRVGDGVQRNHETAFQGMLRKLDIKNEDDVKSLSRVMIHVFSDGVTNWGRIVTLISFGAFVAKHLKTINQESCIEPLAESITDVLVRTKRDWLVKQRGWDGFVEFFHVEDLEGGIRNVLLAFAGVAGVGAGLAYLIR

[3] = target: T1, Fatty acid synthase (Homo sapiens, UniProt P49327); assay: inhibition of human FAS-TE enzyme activity – biochemical, endpoint fluorescence intensity, uHTS hits, dose response (AID 624327); assay type: functional;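 note: fluorescence from hydrolysis of an O-methyl fluorescein acyl ester substrate by the enzyme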
T1 sequence (P49327 whole entry): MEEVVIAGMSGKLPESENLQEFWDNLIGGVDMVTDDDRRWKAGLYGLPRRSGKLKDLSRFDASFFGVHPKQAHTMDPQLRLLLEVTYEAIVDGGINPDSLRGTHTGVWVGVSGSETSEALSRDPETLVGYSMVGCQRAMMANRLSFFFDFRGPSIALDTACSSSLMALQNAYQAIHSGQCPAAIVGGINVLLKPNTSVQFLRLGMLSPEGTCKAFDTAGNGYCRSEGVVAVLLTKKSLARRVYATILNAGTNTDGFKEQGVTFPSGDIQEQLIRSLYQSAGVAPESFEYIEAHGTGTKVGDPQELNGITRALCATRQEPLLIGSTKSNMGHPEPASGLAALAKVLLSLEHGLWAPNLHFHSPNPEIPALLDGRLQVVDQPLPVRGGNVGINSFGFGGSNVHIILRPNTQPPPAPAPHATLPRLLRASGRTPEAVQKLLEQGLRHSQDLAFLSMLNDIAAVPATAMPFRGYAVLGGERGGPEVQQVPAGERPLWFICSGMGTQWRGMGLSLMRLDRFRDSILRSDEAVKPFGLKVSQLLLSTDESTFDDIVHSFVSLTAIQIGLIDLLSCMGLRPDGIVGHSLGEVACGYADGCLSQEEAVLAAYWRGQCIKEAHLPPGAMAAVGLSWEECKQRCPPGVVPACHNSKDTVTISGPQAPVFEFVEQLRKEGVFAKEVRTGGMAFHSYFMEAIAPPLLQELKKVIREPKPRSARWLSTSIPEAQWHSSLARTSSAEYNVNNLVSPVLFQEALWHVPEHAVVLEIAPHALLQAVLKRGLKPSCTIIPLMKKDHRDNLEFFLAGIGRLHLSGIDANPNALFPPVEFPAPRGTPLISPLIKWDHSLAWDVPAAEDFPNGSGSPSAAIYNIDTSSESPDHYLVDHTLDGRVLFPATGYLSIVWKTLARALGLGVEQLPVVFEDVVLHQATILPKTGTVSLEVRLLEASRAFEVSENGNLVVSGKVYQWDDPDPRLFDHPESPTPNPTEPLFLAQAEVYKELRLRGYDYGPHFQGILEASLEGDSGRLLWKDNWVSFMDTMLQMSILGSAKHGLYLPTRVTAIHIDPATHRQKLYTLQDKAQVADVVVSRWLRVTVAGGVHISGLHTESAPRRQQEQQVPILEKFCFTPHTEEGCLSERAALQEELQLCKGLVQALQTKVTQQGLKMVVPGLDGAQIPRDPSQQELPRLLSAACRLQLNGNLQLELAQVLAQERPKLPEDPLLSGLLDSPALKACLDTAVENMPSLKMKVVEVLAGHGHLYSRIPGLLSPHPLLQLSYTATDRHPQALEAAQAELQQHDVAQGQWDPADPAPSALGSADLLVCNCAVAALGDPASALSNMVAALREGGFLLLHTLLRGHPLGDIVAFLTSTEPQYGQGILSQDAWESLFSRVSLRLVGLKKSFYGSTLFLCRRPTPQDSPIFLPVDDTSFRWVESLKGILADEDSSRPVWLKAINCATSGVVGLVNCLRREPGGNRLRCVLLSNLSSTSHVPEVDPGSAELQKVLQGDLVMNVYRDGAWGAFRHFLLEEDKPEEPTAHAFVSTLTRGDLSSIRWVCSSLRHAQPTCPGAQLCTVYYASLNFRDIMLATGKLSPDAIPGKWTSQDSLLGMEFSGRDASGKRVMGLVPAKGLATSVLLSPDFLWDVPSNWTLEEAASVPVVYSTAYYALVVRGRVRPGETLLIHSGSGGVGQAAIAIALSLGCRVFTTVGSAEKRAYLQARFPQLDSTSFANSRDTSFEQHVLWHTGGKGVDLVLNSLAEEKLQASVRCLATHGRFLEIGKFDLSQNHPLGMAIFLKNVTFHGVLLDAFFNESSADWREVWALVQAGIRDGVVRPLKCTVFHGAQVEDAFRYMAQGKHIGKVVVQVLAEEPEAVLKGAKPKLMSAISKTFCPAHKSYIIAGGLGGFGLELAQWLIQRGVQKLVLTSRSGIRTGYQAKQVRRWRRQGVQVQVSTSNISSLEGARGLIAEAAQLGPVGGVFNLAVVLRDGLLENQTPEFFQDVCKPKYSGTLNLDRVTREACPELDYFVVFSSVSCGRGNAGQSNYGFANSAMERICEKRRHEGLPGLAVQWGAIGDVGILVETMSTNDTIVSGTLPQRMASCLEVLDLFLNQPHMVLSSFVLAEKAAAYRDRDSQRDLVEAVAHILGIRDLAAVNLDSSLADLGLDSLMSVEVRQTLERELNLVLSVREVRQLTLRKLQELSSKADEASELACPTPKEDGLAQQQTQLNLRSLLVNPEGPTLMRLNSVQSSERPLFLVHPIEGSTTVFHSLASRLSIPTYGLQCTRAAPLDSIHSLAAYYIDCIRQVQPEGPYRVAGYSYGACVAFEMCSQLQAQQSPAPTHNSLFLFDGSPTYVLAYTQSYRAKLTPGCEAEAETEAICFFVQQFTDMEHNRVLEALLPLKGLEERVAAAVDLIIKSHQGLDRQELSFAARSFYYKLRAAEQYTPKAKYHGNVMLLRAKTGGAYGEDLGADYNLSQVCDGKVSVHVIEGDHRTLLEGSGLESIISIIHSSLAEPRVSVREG

[4] = target: T1, Fatty acid synthase; assay: inhibition of human FAS-TE enzyme activity – biochemical, kinetic fluorescence intensity, dose response (AID 624326); assay type: functional;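 note: rate of fluorescence rise from hydrolysis of a fluorogenic O-methyl fluorescein ester substrate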
[5] = Luminescence Cell-Based Dose Response HTS to Identify Inhibitors of 5'UTR Stem-Loop Driven Prion Protein mRNA Translation in H4 Neuroglioblastoma Cells. [Related pubchem assays: 1827 (Project Summary), 1813 (Primary HTS)]; assay type: functional
[6] = alpha-synuclein stem-loop luciferase translation blockers – H4 neuroglioma cells, luminescence, confirmation (AID 1988); assay type: functional, cell-based
[7] = target: Nonstructural protein 1 (Influenza A virus, UniProt Q194T2); assay type: functional, Influenza A virus (A/California/07/2009(H1N1))
Sequence of Nonstructural protein 1 (Q194T2 whole entry): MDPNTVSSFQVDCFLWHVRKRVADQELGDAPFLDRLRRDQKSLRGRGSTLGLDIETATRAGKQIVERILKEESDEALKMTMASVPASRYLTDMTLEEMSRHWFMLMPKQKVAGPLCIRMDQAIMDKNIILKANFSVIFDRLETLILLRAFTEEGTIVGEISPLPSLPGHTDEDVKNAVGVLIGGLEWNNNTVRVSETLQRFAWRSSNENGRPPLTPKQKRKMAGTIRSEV

[8] = luciferase reporter signal suppression in cells – H4 neuroglioma cells, luminescence, dose response (AID 1990); assay type: functional, cell-based
[9] = HIV-1 AD8 envelope cell-cell fusion blockers – cherry-pick, dose response (AID 652062); assay type: functional, cell-based;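 note: luciferase signal from cell-cell fusion driven by HIV-1 clade B AD8 Env; potency is for inhibitors of fusion seen as a drop in luminescence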
[10] = HEK-293T viability loss after treatment – luminescence, T-cell screen hits, cytotoxicity control for TCR NF-kB inhibitor project, dose response (AID 489026); assay type: functional, cell-based;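 note: cells exposed to compound about 14 hours before the viability readout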
[11] = target: T2, RNA-binding protein pos-1 (Caenorhabditis elegans, UniProt G5EF15); assay: disruptors of C. elegans POS-1 RNA interaction – biochemical, fluorescence polarization, dose response (AID 1964);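 note: purified POS-1 fused to maltose binding protein made in E. coli; potency of compounds blocking POS-1 binding to fluorescent RNA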
T2 sequence (G5EF15 whole entry): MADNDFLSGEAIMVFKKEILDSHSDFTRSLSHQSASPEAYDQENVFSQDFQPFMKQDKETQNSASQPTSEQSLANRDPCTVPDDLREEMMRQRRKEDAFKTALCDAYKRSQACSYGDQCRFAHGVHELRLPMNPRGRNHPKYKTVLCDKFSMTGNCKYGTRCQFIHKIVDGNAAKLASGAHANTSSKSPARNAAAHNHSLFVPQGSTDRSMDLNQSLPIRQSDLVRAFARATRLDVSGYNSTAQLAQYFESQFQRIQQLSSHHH

[12] = target: T3, Zinc finger protein mex-5 (Caenorhabditis elegans, UniProt Q9XUB2); assay: potency of MEX-5 RNA-binding blockers – biochemical, C. elegans, fluorescence polarization, dose response (AID 1960)
T3 sequence (Q9XUB2 whole entry): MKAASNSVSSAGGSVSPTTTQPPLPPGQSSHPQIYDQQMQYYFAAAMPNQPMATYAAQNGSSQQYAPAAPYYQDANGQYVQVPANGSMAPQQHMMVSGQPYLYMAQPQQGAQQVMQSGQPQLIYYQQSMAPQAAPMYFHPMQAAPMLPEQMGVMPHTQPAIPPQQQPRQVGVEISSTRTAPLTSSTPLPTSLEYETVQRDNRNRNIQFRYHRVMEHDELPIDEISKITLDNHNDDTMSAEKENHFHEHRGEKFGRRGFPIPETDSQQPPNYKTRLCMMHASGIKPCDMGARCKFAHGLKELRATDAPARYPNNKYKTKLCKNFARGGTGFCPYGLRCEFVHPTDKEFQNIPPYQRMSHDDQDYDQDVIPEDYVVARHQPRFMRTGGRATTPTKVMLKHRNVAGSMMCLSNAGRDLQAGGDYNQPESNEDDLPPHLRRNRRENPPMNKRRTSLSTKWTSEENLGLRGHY

[13] = tested on: BJ; assay: BJ-TERT fibroblast viability loss – cell-based, RAS-independent, luminescence, dose response (AID 1933); assay type: functional; details: Homo sapiens
[14] = tested on: BJ; assay: BJ-TERT-LT-ST fibroblast viability loss – cell-based, RAS-independent, luminescence, dose response (AID 1935); assay type: functional; details: Homo sapiens;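 note: BJ fibroblasts immortalized with TERT plus LT and ST oncogenes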
[15] = tested on: BJ; assay: cells; assay type: functional, cell-based; details: Homo sapiens
[16] = DRD fibroblast viability loss – cell-based, non-viral oncogenic, luminescence, dose response (AID 1934); assay type: functional; details: Homo sapiens
[17] = blockers of HIV-1 ZM109 envelope-driven cell-cell fusion – HeLa effector, CEM target cells, luciferase, cherry-pick, dose response (AID 652058); assay type: functional, cell-based;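 note: luciferase signal from HIV-1 Env mediated cell-cell fusion of effector and target cells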
[18] = blockers of HIV-1 envelope-mediated cell-cell fusion – cherry-pick, dose response (AID 652057); assay type: functional, cell-based
[19] = target: T4, Protein skinhead-1 (Caenorhabditis elegans, UniProt P34707); assay type: functional
T4 sequence (P34707 whole entry): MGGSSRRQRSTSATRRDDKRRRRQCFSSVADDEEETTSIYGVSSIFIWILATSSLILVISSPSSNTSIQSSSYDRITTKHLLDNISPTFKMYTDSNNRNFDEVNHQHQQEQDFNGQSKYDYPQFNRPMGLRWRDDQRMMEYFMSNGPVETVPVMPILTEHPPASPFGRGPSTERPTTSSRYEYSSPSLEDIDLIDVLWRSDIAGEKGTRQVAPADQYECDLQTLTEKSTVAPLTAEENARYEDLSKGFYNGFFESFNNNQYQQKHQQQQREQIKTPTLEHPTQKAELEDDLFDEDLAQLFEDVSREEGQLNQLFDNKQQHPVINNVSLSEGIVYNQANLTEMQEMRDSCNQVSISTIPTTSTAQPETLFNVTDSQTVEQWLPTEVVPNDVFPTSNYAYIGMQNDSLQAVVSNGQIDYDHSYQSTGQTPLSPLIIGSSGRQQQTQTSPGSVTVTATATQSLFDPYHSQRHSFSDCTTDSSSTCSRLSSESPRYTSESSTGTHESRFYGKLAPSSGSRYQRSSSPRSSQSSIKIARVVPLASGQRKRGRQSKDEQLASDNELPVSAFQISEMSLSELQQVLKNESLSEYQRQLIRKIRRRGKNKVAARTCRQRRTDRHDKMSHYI

[20] = target: Large T antigen (Simian virus 40, UniProt P03070); assay type: functional, Betapolyomavirus macacae;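 note: Confirmatory-stage PubChem screen for compounds that inhibit SV40 T antigen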
Sequence of Large T antigen (P03070 whole entry): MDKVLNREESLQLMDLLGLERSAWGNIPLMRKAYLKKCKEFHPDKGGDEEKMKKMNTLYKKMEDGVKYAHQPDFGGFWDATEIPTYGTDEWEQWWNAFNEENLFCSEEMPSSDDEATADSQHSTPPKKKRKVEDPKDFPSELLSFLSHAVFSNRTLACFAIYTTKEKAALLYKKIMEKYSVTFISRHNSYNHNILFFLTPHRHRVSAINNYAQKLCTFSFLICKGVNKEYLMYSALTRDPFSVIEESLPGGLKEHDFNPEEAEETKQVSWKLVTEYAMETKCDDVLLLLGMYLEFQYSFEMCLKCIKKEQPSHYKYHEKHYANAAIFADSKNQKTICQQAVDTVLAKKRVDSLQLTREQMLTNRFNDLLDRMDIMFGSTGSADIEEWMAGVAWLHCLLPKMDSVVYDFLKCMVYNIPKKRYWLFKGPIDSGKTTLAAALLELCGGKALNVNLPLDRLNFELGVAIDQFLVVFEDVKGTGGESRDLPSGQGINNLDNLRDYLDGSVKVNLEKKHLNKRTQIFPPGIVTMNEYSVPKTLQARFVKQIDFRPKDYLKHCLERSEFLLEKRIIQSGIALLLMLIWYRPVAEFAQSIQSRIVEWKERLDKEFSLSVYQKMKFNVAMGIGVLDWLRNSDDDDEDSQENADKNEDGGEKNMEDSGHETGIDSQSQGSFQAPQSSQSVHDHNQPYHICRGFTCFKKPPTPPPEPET

[21] = NIH-3T3 fibroblast cytotoxicity, dose response, cytotoxicity control, cell-based, fluorescence, Alamar Blue, secondary assay (AID 2327); assay type: functional;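 note: NIH-3T3 mouse fibroblasts cultured with fluconazole at 8 µg/mL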
[22] = fluconazole-exposed Candida albicans growth modulators – fluorescence, retest, confirmation (AID 2467); assay type: functional, cell-based
[23] = viability of uninfected HEp-2 cells – cell-based, HTS, cytotoxicity control for RSV inhibitor project, dose response (AID 2410); assay type: functional; details: human respiratory syncytial virus
[24] = target: Cytochrome P450 2C9 (Homo sapiens, UniProt P11712)
Sequence of Cytochrome P450 2C9 (P11712 whole entry): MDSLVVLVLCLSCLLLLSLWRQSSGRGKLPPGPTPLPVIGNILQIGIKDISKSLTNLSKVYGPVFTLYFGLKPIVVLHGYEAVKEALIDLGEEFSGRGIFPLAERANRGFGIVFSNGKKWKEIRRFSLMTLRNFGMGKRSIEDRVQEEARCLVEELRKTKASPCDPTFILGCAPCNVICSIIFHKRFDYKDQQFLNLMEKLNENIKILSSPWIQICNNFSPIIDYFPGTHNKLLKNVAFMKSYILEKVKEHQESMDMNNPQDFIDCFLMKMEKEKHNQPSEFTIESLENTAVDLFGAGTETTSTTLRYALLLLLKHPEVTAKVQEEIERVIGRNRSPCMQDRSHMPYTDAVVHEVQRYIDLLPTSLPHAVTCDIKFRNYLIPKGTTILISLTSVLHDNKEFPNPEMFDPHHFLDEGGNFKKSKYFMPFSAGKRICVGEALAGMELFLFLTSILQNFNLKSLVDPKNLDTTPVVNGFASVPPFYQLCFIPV

[25] = P. falciparum Dd2 growth inhibitors, dose response, SYBR Green, cherry-picked samples (AID 1159567); assay type: functional, cell-based
[26] = target: Cytochrome P450 3A4 (Homo sapiens, UniProt P08684);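 note: CYP3A4 tested as one member of a cytochrome P450 panel screen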
Sequence of Cytochrome P450 3A4 (P08684 whole entry): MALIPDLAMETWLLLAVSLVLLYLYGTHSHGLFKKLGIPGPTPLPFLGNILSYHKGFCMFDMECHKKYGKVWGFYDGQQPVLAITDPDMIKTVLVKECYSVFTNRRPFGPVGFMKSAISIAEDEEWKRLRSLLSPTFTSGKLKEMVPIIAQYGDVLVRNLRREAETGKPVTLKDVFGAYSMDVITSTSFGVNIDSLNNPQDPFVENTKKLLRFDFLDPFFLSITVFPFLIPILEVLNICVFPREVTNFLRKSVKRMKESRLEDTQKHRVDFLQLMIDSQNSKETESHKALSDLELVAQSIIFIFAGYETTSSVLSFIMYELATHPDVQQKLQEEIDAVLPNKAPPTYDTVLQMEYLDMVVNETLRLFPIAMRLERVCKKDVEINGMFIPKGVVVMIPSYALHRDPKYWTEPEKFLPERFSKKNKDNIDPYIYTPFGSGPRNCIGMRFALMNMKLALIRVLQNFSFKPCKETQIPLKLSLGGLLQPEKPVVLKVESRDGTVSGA

[27] = tested on: Streptococcus; assay: GAS UMAA2166 growth inhibition – luminescence, BacTiterGlo, counter-screen for streptokinase expression inhibitor project, dose response (AID 1915); assay type: functional, organism-based;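 note: potency for reduction of bacterial viability or growth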
[28] = tested on: Streptococcus sp. 'group A'; assay: Streptococcus pyogenes SK(-)GAS viability under kanamycin – luminescence, BacTiterGlo, confirmation, counter-screen for streptokinase expression inhibitor project, dose response (AID 1900); assay type: functional, organism-based

COc1ccc(S(=O)(=O)Nc2ccc3c(c2)CC(=O)N([C@@H](C)CO)C[C@@H](C)[C@@H](CN(C)Cc2ccc(Cl)c(Cl)c2)O3)cc1
AC50 [1]: 4.36 µM (active)

O=C(Nc1ccc(N2CCOCC2)cc1)Nc1ccc(Cl)c(Cl)c1
IC50 [2]: 19.5 µM (not active)

O=C1CC(=O)c2c1cccc2[N+](=O)[O-]
IC50 [2]: 3.52 µM (active)

CCCn1c(SCC(=O)Nc2ccccc2-c2ccccc2)nnc1-c1ccoc1C
IC50 [3]: 8.34 µM (active) | IC50 [4]: 7.42 µM (active)

C[C@@H]1CN([C@@H](C)CO)C(=O)Cc2cc(NC(=O)Nc3ccc(C(F)(F)F)cc3)ccc2O[C@@H]1CN(C)Cc1ccncc1
AC50 [1]: 3.57 µM (active)

CSC1=N/C(=C\c2ccccc2F)C(=O)S1
IC50 [2]: 24.7 µM (not active)

O=C(CSc1n[nH]c(-c2ccccn2)n1)Nc1ccccc1
EC50 [5]: > 120 µM (not active) | EC50 [6]: > 120 µM (not active) | IC50 [7]: 5.02 µM (active) | EC50 [8]: > 120 µM (not active)

C[C@H]1CN([C@@H](C)CO)C(=O)Cc2cc(NC(=O)Cc3cn(C)c4ccccc34)ccc2O[C@H]1CN(C)Cc1ccc(C(=O)Nc2ccccc2N)cc1
AC50 [1]: 2 µM (active)

COc1ccc(N2CCN(C(=O)C3CCC(Cn4c(=S)[nH]c5ccccc5c4=O)CC3)CC2)cc1 (centres undefined)
IC50 [7]: > 100 µM (active) | AC50 [9]: 10 µM (active)

Cn1cc(/C=N/n2cnc3scc(-c4ccc(Cl)cc4)c3c2=O)c2ccccc21
IC50 [10]: > 80 µM (inactive) | EC50 [11]: > 300 µM (not active) | EC50 [12]: > 300 µM (not active) | EC50 [13]: 1.07 µM (active) | EC50 [14]: 1.1 µM (active) | EC50 [15]: 1.77 µM (active) | EC50 [16]: 0.85 µM (active)

C[C@@H]1CCCCO[C@H](CN(C)C(=O)Nc2ccc(C(F)(F)F)cc2)[C@@H](C)CN([C@H](C)CO)C(=O)c2cc(NC(=O)Nc3ccc4c(c3)OCO4)ccc2O1
AC50 [1]: 1.68 µM (active)

C[C@H]1CN([C@@H](C)CO)C(=O)c2c(c3ccccc3n2C)-c2ccccc2CO[C@H]1CN(C)C(=O)C1CC1
AC50 [17]: 0.462 µM (active) | AC50 [9]: 1.18 µM (active) | AC50 [18]: 0.362 µM (active)

O=C(/C=C/c1ccc(Cl)cc1Cl)Nc1ccc(CN2CCOCC2)cc1
IC50 [19]: 27 µM (active)

CCCCCn1c(N)c(C(=O)NCCN2CCOCC2)c2nc3ccccc3nc21
IC50 [19]: > 100 µM (inactive)

c1ccc(-c2cc3c(N4CCOCC4)ncnc3s2)cc1
IC50 [19]: > 100 µM (inactive)

COc1cc(/C=C(\C#N)c2ccccn2)cc(OC)c1O
IC50 [20]: 14.5 µM (active)

CCOc1ccc2c(c1)OC(c1ccc(C)cc1)(C(F)(F)F)NC2=O (centres undefined)
EC50 [21]: > 160 µM (inconclusive) | IC50 [10]: > 80 µM (inactive) | EC50 [22]: > 38 µM (not active) | EC50 [13]: 4.54 µM (inconclusive) | EC50 [14]: 1.32 µM (inconclusive) | EC50 [15]: 29.9 µM (inconclusive) | EC50 [16]: 11.7 µM (inconclusive)

CCn1c2ccccc2c2cc(NC(=O)CSc3nnc(-c4ccc(OC)c(OC)c4)n3N)ccc21
CC50 [23]: > 50 µM (active) | IC50 [19]: > 100 µM (inactive) | AC50 [24]: 22.4 µM (inconclusive)

O=C(NCc1cccs1)c1csc([C@@H]2O[C@H](CO)[C@H](O)[C@H](O)[C@H]2O)n1
IC50 [19]: > 100 µM (inactive)

O=C(NCCCn1ccnc1)C(=O)NCC(c1cccnc1)N1CCN(c2ccc(F)cc2)CC1 (centres undefined)
IC50 [7]: > 100 µM (active)

CCS(=O)(=O)N1CCC2(CC1)CN(Cc1ccc3c(c1)OCO3)[C@@H](CO)c1[nH]c3cc(OC)ccc3c12
AC50 [25]: 8.27 µM (active)

C[C@H]1CN([C@@H](C)CO)C(=O)Cc2cc(NC(=O)Nc3cccc4ccccc34)ccc2O[C@@H]1CN(C)Cc1ccc2c(c1)OCO2
AC50 [1]: 5.35 µM (active)

c1ccc(OCc2nc3ccccc3s2)cc1 [2-(PHENOXYMETHYL)BENZOTHIAZOLE]
IC50 [19]: 29.5 µM (active)

Cc1ccc(S(=O)(=O)N(C)C[C@H]2Oc3c(NC(=O)Nc4ccc(C(F)(F)F)cc4)cccc3C(=O)N([C@@H](C)CO)C[C@H]2C)cc1
AC50 [1]: 1.55 µM (active)

Cn1c(=O)c(C(=O)COC(=O)c2cc(-c3ccco3)nc3ccccc23)c(N)n(Cc2ccccc2)c1=O
IC50 [2]: 2.02 µM (active)

O=C(NCCCCc1ccccc1)C1CC(c2ccccc2[N+](=O)[O-])=NO1 (centres undefined)
IC50 [2]: 7.55 µM (not active) | AC50 [26]: 14.1 µM (inconclusive) | AC50 [24]: 31.6 µM (inconclusive)

CC(=O)NC(Cc1ccc(F)cc1)C(=O)N1CCN(C(=O)NCc2ccccc2)CC1 (centres undefined)
IC50 [19]: > 100 µM (inactive)

CC(C)NC(=O)Nc1cccc2c1O[C@H](CN(C)CC1CCCCC1)[C@@H](C)CN([C@H](C)CO)C2=O
AC50 [1]: 8.41 µM (active)

COc1ccccc1CNC(=O)C[C@H]1C[C@@H]2c3cc(NC(=O)Nc4ccc(C(F)(F)F)cc4)ccc3O[C@@H]2[C@H](CO)O1
AC50 [25]: 6.78 µM (active)

Cc1c(N=N/C(C#N)=C(\O)c2ccccc2)c(=O)n(-c2ccccc2)n1C
EC50 [27]: 7.26 µM (active) | IC50 [7]: 8.08 µM (active) | EC50 [28]: 2.43 µM (active)

O=C(Nc1ccc(Cl)cc1Cl)C1=Cc2ccccc2OC1
IC50 [19]: > 100 µM (inactive)

CC(C)C#Cc1ccc([C@@H]2[C@@H](CO)N3C(=O)CN(C(=O)C4CCCCC4)C[C@@H]23)cc1
AC50 [25]: 7.36 µM (active)

O=C(Nc1nc(-c2ccc(S(=O)(=O)N3CCCC3)cc2)cs1)c1ccco1
IC50 [4]: 4.05 µM (active)

COc1ccc(S(=O)(=O)Nc2cccc(-c3ccc4nncn4n3)c2)cc1F
IC50 [10]: > 80 µM (inactive)

Cc1noc(C)c1S(=O)(=O)Nc1ccc2c(c1)C(=O)N([C@H](C)CO)C[C@H](C)[C@@H](CN(C)Cc1ccc(C(=O)Nc3ccccc3N)cc1)OCCCC[C@@H](C)O2
AC50 [1]: 2.18 µM (active)

C[C@@H]1CN([C@H](C)CO)C(=O)c2cccc(NC(=O)NC3CCCCC3)c2O[C@@H]1CN(C)Cc1ccc(C(=O)Nc2ccccc2N)cc1
AC50 [1]: 3.74 µM (active)

Cc1ccc(S(=O)(=O)N(C)C[C@@H]2Oc3ccc(NC(=O)C4CCCCC4)cc3CC(=O)N([C@H](C)CO)C[C@@H]2C)cc1
AC50 [17]: 0.574 µM (active) | AC50 [9]: 2.14 µM (active) | AC50 [18]: < 0.26 µM (active)
